This passage reports BBB transportation ratio results from publication PMC6173183 (International Journal of Nanomedicine, 2018).

This series relates to in vitro BBB model (HBMEC). As to the kind of experiment: BBB penetration in vitro: transport ratio across HBMEC transwell model. Format: in vitro ADME, human. As to conditions: 240 minutes, FITC 10 μmol⋅L^−1.

Consider fluorescein isothiocyanate [FITC], for which the BBB transportation ratio worked out at 4.53%.
